This is an account of results in patent US8772288B2, “Substituted spiro[cycloalkyl-1,3′-indo]-2′(1′H)-one derivatives and their use as P38 mitogen-activated kinase inhibitors” (Almirall, S.A., priority 2008, dated 2014).

pIC50: −log10 of the molar value.

As a reminder, the pIC50 is the negative decadic logarithm of the IC50, by convention in mol/L.

For the experiment, the target named is human p38alfa (SAPKa) enzyme (Homo sapiens (Human), UniProt Q16539). The experiment in a line: Inhibition Assay: p38 enzymatic activity (ATF2 phosphorylation, FRET). Format: biochemical. The conditions noted are these: read-out: p38α IC50.
Chain of human p38alfa (SAPKa) enzyme (Q16539 whole entry): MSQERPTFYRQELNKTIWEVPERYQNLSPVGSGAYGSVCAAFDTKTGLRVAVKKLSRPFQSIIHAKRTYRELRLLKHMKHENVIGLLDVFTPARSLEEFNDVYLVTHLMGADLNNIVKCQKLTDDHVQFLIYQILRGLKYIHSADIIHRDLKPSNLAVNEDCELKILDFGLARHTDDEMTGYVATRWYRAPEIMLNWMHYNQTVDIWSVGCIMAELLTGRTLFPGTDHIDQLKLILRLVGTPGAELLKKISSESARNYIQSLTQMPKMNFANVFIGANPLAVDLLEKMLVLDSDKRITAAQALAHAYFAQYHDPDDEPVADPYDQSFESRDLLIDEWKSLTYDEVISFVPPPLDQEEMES
With `Cc1ccc(C(=O)NC2CC2)cc1-c1ccc2c(c1)NC(=O)C21CCC(F)(F)CC1` [Example 32, N-Cyclopropyl-3-(4,4-difluoro-2′-oxospiro[cyclohexane-1,3′-indoline]-6′-yl)-4-methylbenzamide], the pIC50 was 8.74.

With `Cc1ccc(C(=O)NC2CC2)cc1-c1cnc2c(c1)NC(=O)C2(C)C` [Example 45, N-Cyclopropyl-3-(3,3-dimethyl-2-oxo-2,3-dihydro-1H-pyrrolo[3,2-b]pyridin-6-yl)-4-methylbenzamide], the pIC50 is 7.21.

`Cc1ccc(C(=O)NC2CC2)cc1-c1ccc2c(c1)NC(=O)C21CCS(=O)(=O)CC1` [Example 27, N-Cyclopropyl-3-(1′,1′-dioxido-2-oxo-1,2,2′,3′,5′,6′-hexahydrospiro[indole-3,4′-thiopyran]-6-yl)-4-methylbenzamide]: the pIC50 is 8.17.

With `Cc1ccc(C(=O)NCC2CC2)cc1-c1ccc2c(c1)NC(=O)C2(C)C` [Example 18, N-(Cyclopropylmethyl)-3-(3,3-dimethyl-2-oxoindolin-6-yl)-4-methylbenzamide], the pIC50 was 7.57.

Take `Cc1ccc(C(=O)NC2CC2)cc1-c1cc2c(cn1)C1(CCCC1)C(=O)N2` [Example 51, N-Cyclopropyl-4-methyl-3-(2′-oxo-1′,2′-dihydrospiro[cyclopentane-1,3′-pyrrolo[3,2-c]pyridin]-6′-yl)benzamide]: the pIC50 is 9.10.

For the compound `Cc1ccc(C(N)=O)cc1-c1ccc2c(c1)NC(=O)C2(C)C` [Example 7, 3-(3,3-dimethyl-2-oxoindolin-6-yl)-4-methylbenzamide], the pIC50 is 7.10.

With `Cc1ccc(C(=O)NC2CC2)cc1-c1ncc2c(n1)NC(=O)C21CCCC1` [Example 52, N-Cyclopropyl-4-methyl-3-(6′-oxo-6′,7′-dihydrospiro[cyclopentane-1,5′-pyrrolo[2,3-c]pyrimidin]-2′-yl)benzamide], the pIC50 was 7.14.

As to `Cc1nnc(-c2cc(F)c(C)c(-c3ccc4c(c3)NC(=O)C43CCOCC3)c2)[nH]1` [Example 61, 6-[3-Fluoro-2-methyl-5-(5-methyl-4H-1,2,4-triazol-3-yl)phenyl]-2′,3′,5′,6′-tetrahydro-spiro[indole-3,4′-pyran]-2(1H)-one], the pIC50 was 8.10.

For `Cc1c(F)cc(C(=O)NC2CC2)cc1-c1ccc2c(c1)NC(=O)C21CCN(S(C)(=O)=O)CC1` [Example 31, N-cyclopropyl-3-fluoro-4-methyl-5-(1′-(methylsulfonyl)-2-oxospiro[indoline-3,4′-piperidine]-6-yl)benzamide], the pIC50 is 9.00.

For the compound `Cc1ccc(C(=O)Nc2ccon2)cc1-c1ccc2c(c1)NC(=O)C2(C)C` [Example 19, 3-(3,3-Dimethyl-2-oxo-2,3-dihydro-1H-indol-6-yl)-N-isoxazol-3-yl-4-methylbenzamide], the pIC50 is 10.40.

Consider `Cc1ccc(C(=O)Nc2ccon2)cc1-c1ccc2c(c1)NC(=O)C21CCOCC1` [Example 23, N-Isoxazol-3-yl-4-methyl-3-(2-oxo-1,2,2′,3′,5′,6′-hexahydrospiro[indole-3,4′-pyran]-6-yl)benzamide], for which the pIC50 is 10.22.

With `Cc1ccc(C(=O)NC2CC2)cc1-c1ccc2c(c1)NC(=O)C21CCC(C)(O)CC1` (stereo not drawn) [Example 37, N-cyclopropyl-3-(4-hydroxy-4-methyl-2′-oxospiro[cyclohexane-1,3′-indoline]-6′-yl)-4-methylbenzamide], the pIC50 is 9.10.

Regarding `Cc1nnc(-c2ccc(C)c(-c3ccc4c(c3)NC(=O)C43CCOCC3)c2)[nH]1` [Example 59, 6-(2-Methyl-5-(5-methyl-4H-1,2,4-triazol-3-yl)phenyl)-2′,3′,5′,6′-tetrahydrospiro[indoline-3,4′-pyran]-2-one], the negative-log IC50 (pIC50) is 8.00.

For `Cc1ccc(C(=O)NC2CC2)cc1-c1ccc2c(c1)NC(=O)C21CCC(N2CCOCC2)CC1` (stereo not drawn) [Example 40, N-cyclopropyl-4-methyl-3-(4-morpholino-2′-oxospiro[cyclohexane-1,3′-indoline]-6′-yl)benzamide], the pIC50 is 9.00.

In the case of `Cc1nnc(-c2ccc(C)c(-c3ccc4c(c3)NC(=O)C43CCCC3)c2)o1` [Example 70, 6′-(2-Methyl-5-(5-methyl-1,3,4-oxadiazol-2-yl)phenyl)spiro[cyclopentane-1,3′-indolin]-2′-one], the pIC50 was 7.49.

`Cc1nnc(-c2ccc(C)c(-c3ccc4c(c3)NC(=O)C43CCC(F)(F)CC3)c2)[nH]1` [Example 63, 4,4-Difluoro-6′-(2-methyl-5-(5-methyl-4H-1,2,4-triazol-3-yl)phenyl)spiro[cyclohexane-1,3′-indolin]-2′-one]: the pIC50 is 8.70.

As for `Cc1nnc(-c2ccc(C)c(-c3ccc4c(c3)NC(=O)C43CCN(S(C)(=O)=O)CC3)c2)[nH]1` [Example 67, 6-(2-methyl-5-(5-methyl-4H-1,2,4-triazol-3-yl)phenyl)-1′-(methylsulfonyl)spiro[indoline-3,4′-piperidin]-2-one], the pIC50 is 8.33.

Consider `Cc1nnc(-c2cc(F)c(C)c(-c3ccc4c(c3)NC(=O)C43CCC(C)(O)CC3)c2)[nH]1` (stereo not drawn) [Example 65, 6′-(3-fluoro-2-methyl-5-(5-methyl-4H-1,2,4-triazol-3-yl)phenyl)-4-hydroxy-4-methylspiro[cyclohexane-1,3′-indolin]-2′-one], for which the pIC50 was 8.10.

On to `Cc1nnc(-c2ccc(C)c(-c3ccc4c(c3)NC(=O)C43CCCC3)c2)[nH]1` [Example 53, 6′-(2-Methyl-5-(5-methyl-4H-1,2,4-triazol-3-yl)phenyl)spiro[cyclopentane-1,3′-indolin]-2′-one], for which the pIC50 was 8.12.

Consider `Cc1ccc(-c2ncn[nH]2)cc1-c1ccc2c(c1)NC(=O)C21CCCC1` [Example 55, 6′-(2-Methyl-5-(4H-1,2,4-triazol-3-yl)phenyl)spiro[cyclopentane-1,3′-indolin]-2′-one], for which the pIC50 is 8.05.

As for `Cc1ccc(C(=O)NC2CC2)cc1-c1ccc2c(c1)NC(=O)C21CCC(O)CC1` (stereo not drawn) [Example 34, N-cyclopropyl-3-(4-hydroxy-2′-oxospiro[cyclohexane-1,3′-indoline]-6′-yl)-4-methylbenzamide], the pIC50 is 8.85.

Consider `Cc1nnc(-c2ccc(C)c(-c3ccc4c(c3)NC(=O)C43CCC(F)(F)CC3)c2)o1` [Example 72, 4,4-Difluoro-6′-(2-methyl-5-(5-methyl-1,3,4-oxadiazol-2-yl)phenyl)spiro-[cyclohexane-1,3′-indolin]-2′-one], for which the pIC50 was 8.25.

As for `Cc1ccc(C(=O)NC2CC2)cc1-c1ccc2c(c1)NC(=O)C21CCOCC1` [Example 22, N-Cyclopropyl-4-methyl-3-(2-oxo-2′,3′,5′,6′-tetrahydrospiro[indoline-3,4′-pyran]-6-yl)benzamide], the pIC50 is 8.85.

As for `Cc1nnc(-c2ccc(C)c(-c3ccc4c(c3)NC(=O)C43CCC3)c2)[nH]1` [Example 54, 6′-[2-Methyl-5-(5-methyl-4H-1,2,4-triazol-3-yl)phenyl]spiro[cyclobutane-1,3′-indol]-2′(1′H)-one], the pIC50 was 7.74.

On to `Cc1ccc(C(=O)NC2CC2)cc1-c1cnc2c(c1)NC(=O)C21CCOCC1` [Example 47, N-Cyclopropyl-4-methyl-3-(2′-oxo-1′,2,2′,3,5,6-hexahydrospiro[pyran-4,3′-pyrrolo-[3,2-b]pyridin]-6′-yl)benzamide], for which the pIC50 is 7.89.

`Cc1nnc(-c2ccc(C)c(-c3ccc4c(c3)NC(=O)C43CCC(O)CC3)c2)o1` (stereo not drawn) [Example 73, 4-hydroxy-6′-(2-methyl-5-(5-methyl-1,3,4-oxadiazol-2-yl)phenyl)spiro[cyclohexane-1,3′-indolin]-2′-one]: the pIC50 was 8.24.

For the compound `Cc1ccc(C(=O)NC2CC2)cc1-c1ccc2c(n1)NC(=O)C21CCCC1` [Example 43, N-Cyclopropyl-4-methyl-3-(2′-oxo-1′,2′-dihydrospiro[cyclopentane-1,3′-pyrrolo[2,3-b]pyridine]-6′-yl)benzamide], the pIC50 was 8.25.
